Source: patent US12174192B2, “Methods for detecting and treating cancers having adenosine pathway activation” (Corvus Pharmaceuticals, Inc., priority 2018, dated 2024)
“Also recorded” adds a separate entry of the source.

What was measured:
PBMCs = assay: CXCL5 protein ELISA in culture supernatants of PBMCs treated with NECA +/- CPI-444; assay type: cell-based; settings: PBMCs from two human donors; NECA then CPI-444 then anti-CD3/CD28; two days after activation
Experimental: Expression of CXCL5 was determined by ELISA 2 days after activation.
FIGS. 2B and 2C show the response of PBMCs from two different donors to NECA+/−CPI-444 treatment. DMSO was used as vehicle control. […] This control helps establish that the induction of CXCL5 is specific to signaling through adenosine receptors.
NECA activation of CXCL5 protein expression was evaluated. PBMCs were harvested from two different human donors. […] CPI-444 (Corvus Pharmaceuticals) is an antagonist of the adenosine A2A receptor. CXCL5 protein in the culture supernatants was evaluated by ELISA two days after activation. CXCL5 expression is activated by NECA. […] This establishes that the induction of CXCL5 is specific to signaling through adenosine receptors.

renal tumors (RCC) = assay: Change in tumor size in renal cancer patients treated with CPI-444 (Ph 1/1b trial); assay type: in vivo, human
Experimental: Methods: Tumor biopsies obtained at trial screening from patients with RCC (n=30) were analyzed for gene expression profiles with the Nanostring PanCancer Immune Panel that included 770 markers of immune activity and inflammation. The gene expression correlation (Spearman) matrix was hierarchically clustered (Ward's method) to identify modules of genes that were co-expressed across tumors. Gene expression was normalized to housekeeper genes included in the PanCancer Immune Panel. Gene cluster expression intensity was compared between patients with evaluable best change in tumor size ≤0 (n=8) vs >0 (n=15). The composite gene expression score was calculated as the average of the Log2 of expression values (normalized Nanostring counts) for seven genes (CXCL1, CXCL2, CXCL3, CXCL5, IL1B, IL8, SERPINB2) shown to be induced in vitro in normal peripheral blood mononuclear cells by adenosine. Protein expression was determined from blood (plasma) samples from baseline (untreated) renal cell carcinoma (RCC) patients using MesoScale assay.
Renal cancer patients were treated with CPI-444, and change in tumor size was measured.

IL6 and IL8 = assay: Plasma IL6 and IL8 protein levels in RCC patients after CPI-444 treatment; assay type: in vivo, human; settings: RCC patients with reduction in tumor size (best response); after treatment (4 weeks)
A2AR = assay: In vitro A2AR stimulation gene signature and its inhibition by CPI-444; assay type: cell-based, human; settings: transcript and protein level
Experimental: RNA purified from normal, healthy human peripheral blood mononuclear cells (PBMCs) treated with 5′-N-ethylcarboxamidoadenosine (NECA) and activated with anti-CD3/CD28 antibody were analyzed by NanoString hybridization-based quantification (NanoString Technologies, Inc.). […] Each dot represents the expression level of a specific gene. Dot shade represents the concentration of NECA used and/or different PBMC donors. […] Increases in monocyte/macrophage inflammatory mediators such as IL-1b and CCL2,3,7,8, 20 were also observed, as were increases in SERPINB2, S100A8, PTGS2, THBS1. Expression of CXCL10 and GZMB were decreased, consistent with a suppressed IFNg response. […] A2AR agonists induce a specific gene signature (increase in a certain subset of genes and/or decrease in a second subset of genes) dominated by immunosuppressive mediators of MDSC and monocyte/macrophage biology. Inhibition of these genes by CPI-444 are observed. These gene signatures may be used as biomarkers for patient selection.

[1] = test system: adenosine-modulated genes and proteins; assay: Adenosine-induced genes and proteins in tumor biopsies from treated patients; design: species or system human; settings: in vitro and in vivo in tumor biopsies from treated patients
Source text: Expression of a subset of genes that are modulated by adenosine levels correlates with tumor regression in the ongoing Ph 1/1b trial with CPI-444 treatment in RCC. […] A2AR agonists induce a specific gene signature dominated by immunosuppressive mediators of MDSC and monocyte/macrophage biology. […] These genes and proteins may identify patients with high levels of adenosine and be used as biomarkers for patient selection to select patients most likely to respond to therapy with agents that antagonize adenosine production or signaling.

advanced cancers = assay: Ongoing phase 1/1b trial of CPI-444 monotherapy in patients with advanced cancers; assay type: in vivo, human
Source text: “Adenosine receptor antagonist” refers to a molecule that inhibits activity of adenosine receptors (e.g. A2A or A2B receptors), typically through direct action. Adenosine receptors antagonists can be small or large molecule antagonists. In embodiments, CPI-444 is an example A2A receptor antagonist. […] CPI-444 is described, for example, in PCT Patent Publication No. WO 2017/112917; each of which is incorporated herein by reference in its entirety.

With Cc1ccc(-c2nc(N)nc3c2nnn3Cc2cccc(CO[C@H]3CCOC3)n2)o1 [CPI-444, (S)-7-(5-methylfuran-2-yl)-3-((6-(((tetrahydrofuran-3-yl)oxy)methyl)pyridin-2-yl)methyl)-3H-[1,2,3]triazolo[4,5-d]pyrimidin-5-amine] the “NECA-induced increase in CXCL5 protein (ELISA), effect of added CPI-444” value (PBMCs) was “blocked”, the “response to CPI-444 monotherapy, patients with high CD68 or high CD163 gene levels in the tumors” value (renal tumors (RCC); RCC patients, vs low levels of CD68 or CD163) was “more likely to respond” and the “tumor regression with CPI-444, patients with high expression of adenosine-modulated gene subset” value (renal tumors (RCC); ongoing Ph 1/1b trial, RCC, vs patients with low expression) was “more likely to have tumor regression”. The “reduction in tumor size (best overall change) after CPI-444 treatment” value (renal tumors (RCC); patients with RCC, two subjects) was “greater than 30%”, the “change in tumor size after CPI-444 treatment, tumors with low composite gene expression score” value (renal tumors (RCC); renal cancer patients) was “tumor regression was not observed” and the “response to CPI-444, patients with high CCL20 and low CX3CL1 plasma protein levels” value (renal tumors (RCC); renal cancer patients) was “more likely to respond”. For the same compound, the “change in tumor size after CPI-444 treatment, tumors with high composite gene expression score” value (renal tumors (RCC); renal cancer patients, four patients) was “reduction in tumor size”, the “IL6 and IL8 levels in blood plasma after treatment” value (IL6 and IL8) was “reduced; also recorded: decreased” and the “A2AR stimulation-induced gene expression changes, effect of CPI-444” value (A2AR) was “inhibited these changes”. The “adenosine agonist-induced genes and proteins, effect of CPI-444” value [1] was “Inhibition of these genes and proteins” and the “anti-tumor activity as a monotherapy” value (advanced cancers) was “demonstrated anti-tumor activity”.
